The text below walks through data of US20040228948A1, “Increasing the concentration of conjugated linoleic acid isomers in the milk fat and/or tissue fat of ruminants” (priority 2003, published 2004).

The test system of one test is lactating Holstein cows. Put plainly: Example 2 feeding trial: milk fatty acid composition. The format is in vivo. Conditions: FIGS. 4 and 5, monensin with safflower oil.
For the next test, the system named is dairy cows. Conditions: 24 mg/kg of dietary dry matter, 28-day period; increase from 0.8%; cited from earlier work.
The subject of test [1] is DMBA-induced mammary tumors in rats. The settings on record: 0.05 g CLA/100 g of diet; cited from earlier work.
A further test concerns mouse DMBA model. Conditions: synthetically prepared mixture of the CLA isomers; cited from earlier work.

Excerpt for lactating Holstein cows: Twenty-eight primiparous and 34 multiparous lactating Holstein cows were used in a randomized complete block design with repeated measures. Animals were blocked according to parity and DIM. Cows within each block were then randomly assigned to one of six treatment diets: (1) Control diet (CTL); (2) Control diet including safflower oil supplemented at 6% of DM (SAFF); (3) Control diet including safflower oil supplemented at 6% of DM plus Vitamin E supplemented at 150 IU/kg DM (SAFF/E); (4) Control diet including safflower oil supplemented at 6% of DM plus monensin supplemented at 24 ppm of DM (SAFF/M); (5) Control diet including safflower oil supplemented at 6% of DM plus Vitamin E supplemented at 150 IU/kg DM plus monensin supplemented at 24 ppm of DM (SAFF/M/E); (6) Control diet including flaxseed oil supplemented at 6% of DM plus Vitamin E supplemented at 150 IU/kg DM (FLAX/E). […] Feed intake was recorded daily and adjusted to maintain 5 to 10% orts. […] Milk yield was recorded daily. […] A portion of milk from each cow was preserved with potassium dichromate and analyzed for protein, fat, lactose, and somatic cell count at the Alberta Agriculture, Food and Rural Development Central Milk Testing Laboratory (Edmonton, Alberta, Canada). […] The data were analyzed as a randomized complete block design with repeated measures using MIXED procedure of SAS version 8:3 (SAS Institute, Cary, N.C.).

As for `CC[C@@]1([C@@H]2O[C@@H]([C@H]3O[C@@](O)(CO)[C@H](C)C[C@@H]3C)C[C@@H]2C)CC[C@H]([C@]2(C)CC[C@]3(C[C@H](O)[C@@H](C)[C@@H]([C@@H](C)[C@@H](OC)[C@H](C)C(=O)O)O3)O2)O1` [monensin], the “persistence of effect on CLA and trans 18:1” value with lactating Holstein cows is “consistent across the two-month period”. For the same compound, the “CLA in milk fat” value in the test with dairy cows is reported as 1.3 % of milk fat.

For the compound Conjugated linoleic acid [CLA], the “number of mammary tumors” value in test [1] is reported as “reduction”. In addition, in the test on mouse DMBA model, the “papillomas compared to the control mice” value is “about one-half”.
